Reference: patent publication US20050113405A1, “Methods of treating rheumatoid arthritis using NF-kB inhibitors” (Wyeth, priority 2003, published 2005)

Experiments:
BALB/c mice = experiment: Collagen induced arthritis model (anti-type II collagen mAbs plus LPS), hind paw volume; format: in vivo, mouse; conditions: 2.5 mg/kg orally once daily; over the course of the experiment
Protocol: Compounds are evaluated in BALB/c mice, 6-8 weeks of age, in which arthritis is induced by monoclonal antibodies raised against type II collagen, plus lipopolysaccharide (LPS). The animals were administered intravenously with a combination of 4 different mAbs totaling 4 mg/mouse on day 0, and followed by intravenous 25 μg of LPS 72 hours later (day 3). From day 3, one hour after LPS application, tested compounds are give orally once daily for 15 days. For each animal, increase in volume of both hind paws is measured using a plethysmometer with water cell (12 mm diameter) on days 0, 5, 7, 10, 14 and 17. Percent inhibition of increase in volume is calculated. Reduction of edema in the hind paws by 30% or more is considered significant.

[1] = test system: Lewis rats with adjuvant-induced arthritis; experiment: Adjuvant-induced arthritis in Lewis rats, histological scoring of tarsal joints (Mankin and synovitis scores); format: in vivo, rat; conditions: for Tidemark Integrity (0-1) / Cartilage Cells (0-3) / Cartilage Structure (0-6) / Fibroplasia (0-3) / Inflammatory Cells (0-3) / Pannus (0-2) / Saffranin-O/Fast Green Staining (0-4) / Synovial Structure (0-3) / Total Mankin Score (0-14) / Total Synovitis Score (0-10): tarsal joints; for Cartilage Cells (0-3) / Cartilage Structure (0-6) / Fibroplasia (0-3) / Inflammatory Cells (0-3) / Pannus (0-2) / Saffranin-O/Fast Green Staining (0-4) / Synovial Structure (0-3) / Total Mankin Score (0-14) / Total Synovitis Score (0-10): mean ± SD
Protocol: Statistical analysis was performed using Abacus Concepts Super ANOVA. (Abacus Concepts, Inc., Berkeley, Calif.). All of the parameters of interest were subjected to Analysis of Variance with Duncan's new multiple range post hoc testing between groups. Data are expressed throughout as mean±standard deviation (SD), and differences were deemed significant if p<0.05.
At the end of the study the rats were euthanized with CO2, hindlimbs were removed at necropsy and fixed in 10% buffered formalin, and the tarsal joints were decalcified and embedded in paraffin. Histologic sections will be stained with Hematoxylin and Eosin or Saffranin O—Fast Green stain.
Slides will be coded so that the examiner will be blinded to the treatment groups. […] Articular cartilage and bone will be evaluated using Mankin's histological grading system (method described by Mankin H J, Dorfman, H:Lippieo L. L. Zarins. 1971. Biochemical and metabolic abnormalities in articular cartilage from osteoarthritic human hip. See J. Bone Joint Surg (AM) 53A:152-153) (Table 6).

[2] = test system: Lewis rats with adjuvant-induced arthritis; experiment: Adjuvant-induced arthritis in Lewis rats, daily joint scores (hindpaw erythema and swelling); format: in vivo, rat
HLA-B27 transgenic rats [3] = experiment: HLA-B27 transgenic rat, histological scoring of synovitis and cartilage damage in tarsal joints; format: in vivo; conditions: 0.6 mg/kg orally for 29 days
From the text: (§1) The HLA-B27 transgenic rat expresses two human proteins (HLA-B27 and β2 microglobulin) that, over time, provoke a misdirected immune response. This model represents a chronic intestinal inflammation with associated arthritis induced by the human class I major histocompatibility allele HLA-B27 that is strongly associated with human disease. […] If the disease is allowed to progress, they begin to show symptoms of arthritis. […] Histological scoring of synovitis and cartilage damage in the tarsal joints after 29 days of treatment was also conducted.

HLA-B27 transgenic rats [4] = experiment: HLA-B27 transgenic rat, stool and clinical joint scores; format: in vivo; conditions: sub-optimal dose 0.6 mg/kg
From the text: as §1

[5] = 0.1 mg/kg orally for 2 weeks from day 8 after CFA
[6] = 0.3 mg/kg orally for 2 weeks from day 8 after CFA
[7] = 1 mg/kg orally for 2 weeks from day 8 after CFA

C[C@@H]1c2cc(F)ccc2-c2ccccc2N1S(=O)(=O)c1ccc(O)cc1 (stereo in doubt) [Example 3, 4-[(8-Fluoro-6-methylphenanthridin-5(6H)-yl)sulfonyl]phenol]
inhibition of paw edema (increase in hind paw volume) (BALB/c mice): > 30% | Tidemark Integrity (0-1) [1, 5]: 0 | Cartilage Cells (0-3) [1, 5]: 1.92 ± 0.21 | Cartilage Structure (0-6) [1, 5]: 2.33 ± 0.68 | Fibroplasia (0-3) [1, 5]: 1.75 ± 0.42 | Inflammatory Cells (0-3) [1, 5]: 1.83 ± 0.52 | Pannus (0-2) [1, 5]: 1.50 ± 0.84 | Saffranin-O/Fast Green Staining (0-4) [1, 5]: 2.42 ± 0.67 | Synovial Structure (0-3) [1, 5]: 2.33 ± 0.75 | Total Mankin Score (0-14) [1, 5]: 6.83 ± 1.25 | Total Synovitis Score (0-10) [1, 5]: 7.42 ± 2.25 | Tidemark Integrity (0-1) [1, 6]: 0 | Cartilage Cells (0-3) [1, 6]: 1.50 ± 0.32 | Cartilage Structure (0-6) [1, 6]: 1.75 ± 0.42 | Fibroplasia (0-3) [1, 6]: 1.67 ± 0.26*t | Inflammatory Cells (0-3) [1, 6]: 1.25 ± 0.27 | Pannus (0-2) [1, 6]: 0.50 ± 0.84 | Saffranin-O/Fast Green Staining (0-4) [1, 6]: 2.17 ± 0.26 | Synovial Structure (0-3) [1, 6]: 1.58 ± 0.38 | Total Mankin Score (0-14) [1, 6]: 5.42 ± 0.74*t | Total Synovitis Score (0-10) [1, 6]: 5.00 ± 1.30*#t | Tidemark Integrity (0-1) [1, 7]: 0 | Cartilage Cells (0-3) [1, 7]: 1.17 ± 0.26*t | Cartilage Structure (0-6) [1, 7]: 1.25 ± 0.27 | Fibroplasia (0-3) [1, 7]: 1.33 ± 0.41*t | Inflammatory Cells (0-3) [1, 7]: 1.17 ± 0.26 | Pannus (0-2) [1, 7]: 0.25 ± 0.42 | Saffranin-O/Fast Green Staining (0-4) [1, 7]: 2.17 ± 0.26 | Synovial Structure (0-3) [1, 7]: 1.42 ± 0.38 | Total Mankin Score (0-14) [1, 7]: 4.58 ± 0.74*t | Total Synovitis Score (0-10) [1, 7]: 4.17 ± 1.21*#t | overall synovitis and cartilage scores ([1]; all concentrations tested (down to 0.1 mg/kg), oral): significantly improved | joint scores (paw swelling and redness, maximal score per day 12) ([2]; Day 8, 0.1 mg/kg orally each day from Day 8 after adjuvant): 11.3 | joint scores (paw swelling and redness, maximal score per day 12) ([2]; Day 8, 0.3 mg/kg orally each day from Day 8 after adjuvant): 11.5 | joint scores (paw swelling and redness, maximal score per day 12) ([2]; Day 8, 1 mg/kg orally each day from Day 8 after adjuvant): 11.3 | joint scores (paw swelling and redness, maximal score per day 12) ([2]; Day 9, 0.1 mg/kg orally each day from Day 8 after adjuvant): 10.7 | joint scores (paw swelling and redness, maximal score per day 12) ([2]; Day 9, 0.3 mg/kg orally each day from Day 8 after adjuvant): 9.8 | joint scores (paw swelling and redness, maximal score per day 12) ([2]; Day 9, 1 mg/kg orally each day from Day 8 after adjuvant): 8.8 | joint scores (paw swelling and redness, maximal score per day 12) ([2]; Day 10, 0.1 mg/kg orally each day from Day 8 after adjuvant): 9.3 | joint scores (paw swelling and redness, maximal score per day 12) ([2]; Day 10, 0.3 mg/kg orally each day from Day 8 after adjuvant): 7.3 | joint scores (paw swelling and redness, maximal score per day 12) ([2]; Day 10, 1 mg/kg orally each day from Day 8 after adjuvant): 7 | joint scores (paw swelling and redness, maximal score per day 12) ([2]; Day 11, 0.1 mg/kg orally each day from Day 8 after adjuvant): 9.7 | joint scores (paw swelling and redness, maximal score per day 12) ([2]; Day 11, 0.3 mg/kg orally each day from Day 8 after adjuvant): 7 | joint scores (paw swelling and redness, maximal score per day 12) ([2]; Day 11, 1 mg/kg orally each day from Day 8 after adjuvant): 6 | joint scores (paw swelling and redness, maximal score per day 12) ([2]; Day 12, 0.1 mg/kg orally each day from Day 8 after adjuvant): 10 | joint scores (paw swelling and redness, maximal score per day 12) ([2]; Day 12, 0.3 mg/kg orally each day from Day 8 after adjuvant): 6.7 | joint scores (paw swelling and redness, maximal score per day 12) ([2]; Day 12, 1 mg/kg orally each day from Day 8 after adjuvant): 5 | joint scores (paw swelling and redness, maximal score per day 12) ([2]; Day 13, 0.1 mg/kg orally each day from Day 8 after adjuvant): 4.2 | joint scores (paw swelling and redness, maximal score per day 12) ([2]; Day 13, 0.3 mg/kg orally each day from Day 8 after adjuvant): 3.7 | joint scores (paw swelling and redness, maximal score per day 12) ([2]; Day 13, 1 mg/kg orally each day from Day 8 after adjuvant): 1.7 | joint scores (paw swelling and redness, maximal score per day 12) ([2]; Day 14, 0.1 mg/kg orally each day from Day 8 after adjuvant): 3.5 | joint scores (paw swelling and redness, maximal score per day 12) ([2]; Day 14, 0.3 mg/kg orally each day from Day 8 after adjuvant): 3 | joint scores (paw swelling and redness, maximal score per day 12) ([2]; Day 14, 1 mg/kg orally each day from Day 8 after adjuvant): 1.3 | joint scores (paw swelling and redness, maximal score per day 12) ([2]; Day 15, 0.1 mg/kg orally each day from Day 8 after adjuvant): 3.5 | joint scores (paw swelling and redness, maximal score per day 12) ([2]; Day 15, 0.3 mg/kg orally each day from Day 8 after adjuvant): 3.7 | joint scores (paw swelling and redness, maximal score per day 12) ([2]; Day 15, 1 mg/kg orally each day from Day 8 after adjuvant): 1.3 | joint scores (paw swelling and redness, maximal score per day 12) ([2]; Day 16, 0.1 mg/kg orally each day from Day 8 after adjuvant): 3.3 | joint scores (paw swelling and redness, maximal score per day 12) ([2]; Day 16, 0.3 mg/kg orally each day from Day 8 after adjuvant): 2.3 | joint scores (paw swelling and redness, maximal score per day 12) ([2]; Day 16, 1 mg/kg orally each day from Day 8 after adjuvant): 1.2 | joint scores (paw swelling and redness, maximal score per day 12) ([2]; Day 17, 0.1 mg/kg orally each day from Day 8 after adjuvant): 3.3 | joint scores (paw swelling and redness, maximal score per day 12) ([2]; Day 17, 0.3 mg/kg orally each day from Day 8 after adjuvant): 2.3 | joint scores (paw swelling and redness, maximal score per day 12) ([2]; Day 17, 1 mg/kg orally each day from Day 8 after adjuvant): 1.2 | joint scores (paw swelling and redness, maximal score per day 12) ([2]; Day 18, 0.1 mg/kg orally each day from Day 8 after adjuvant): 3.3 | joint scores (paw swelling and redness, maximal score per day 12) ([2]; Day 18, 0.3 mg/kg orally each day from Day 8 after adjuvant): 2.3 | joint scores (paw swelling and redness, maximal score per day 12) ([2]; Day 18, 1 mg/kg orally each day from Day 8 after adjuvant): 1.2 | joint scores (paw swelling and redness, maximal score per day 12) ([2]; Day 19, 0.1 mg/kg orally each day from Day 8 after adjuvant): 3 | joint scores (paw swelling and redness, maximal score per day 12) ([2]; Day 19, 0.3 mg/kg orally each day from Day 8 after adjuvant): 2 | joint scores (paw swelling and redness, maximal score per day 12) ([2]; Day 19, 1 mg/kg orally each day from Day 8 after adjuvant): 1.2 | joint scores (paw swelling and redness, maximal score per day 12) ([2]; Day 20, 0.1 mg/kg orally each day from Day 8 after adjuvant): 2.8 | joint scores (paw swelling and redness, maximal score per day 12) ([2]; Day 20, 0.3 mg/kg orally each day from Day 8 after adjuvant): 2 | joint scores (paw swelling and redness, maximal score per day 12) ([2]; Day 20, 1 mg/kg orally each day from Day 8 after adjuvant): 1.2 | joint scores (paw swelling and redness, maximal score per day 12) ([2]; Day 21, 0.1 mg/kg orally each day from Day 8 after adjuvant): 2.5 | joint scores (paw swelling and redness, maximal score per day 12) ([2]; Day 21, 0.3 mg/kg orally each day from Day 8 after adjuvant): 1.7 | joint scores (paw swelling and redness, maximal score per day 12) ([2]; Day 21, 1 mg/kg orally each day from Day 8 after adjuvant): 1.2 | joint scores (paw swelling and redness, maximal score per day 12) ([2]; Day 22, 0.1 mg/kg orally each day from Day 8 after adjuvant): 2.5 | joint scores (paw swelling and redness, maximal score per day 12) ([2]; Day 22, 0.3 mg/kg orally each day from Day 8 after adjuvant): 1.7 | joint scores (paw swelling and redness, maximal score per day 12) ([2]; Day 22, 1 mg/kg orally each day from Day 8 after adjuvant): 1.2 | joint scores (paw swelling and redness, maximal score per day 12) ([2]; Day 23, 0.1 mg/kg orally each day from Day 8 after adjuvant): 1.2 | joint scores (paw swelling and redness, maximal score per day 12) ([2]; Day 23, 0.3 mg/kg orally each day from Day 8 after adjuvant): 1 | joint scores (paw swelling and redness, maximal score per day 12) ([2]; Day 23, 1 mg/kg orally each day from Day 8 after adjuvant): 1 | joint scores (paw swelling and redness, maximal score per day 12) ([2]; Day 24, 0.1 mg/kg orally each day from Day 8 after adjuvant): 1.3 | joint scores (paw swelling and redness, maximal score per day 12) ([2]; Day 24, 0.3 mg/kg orally each day from Day 8 after adjuvant): 1.3 | joint scores (paw swelling and redness, maximal score per day 12) ([2]; Day 24, 1 mg/kg orally each day from Day 8 after adjuvant): 0.8 | melting point: 188 °C

COc1cc(OC)cc(N2CCN(C(=O)[C@](C)(C#N)[C@H](c3ccccc3OC)c3cccc4ccccc34)CC2)c1 [Example 4, (S)-3-[4-(3,5-dimethoxyphenyl)piperazin-1-yl]-2-[(S)-(2-methoxyphenyl)(1-naphthyl)methyl]-2-methyl-3-oxopropanenitrile]
melting point: 186 to 188 °C

C[C@]12C=CC(=O)C=C1CC[C@@H]1[C@@H]2[C@@H](O)C[C@@]2(C)[C@H]1CC[C@]2(O)C(=O)CO [Prednisolone]
Tidemark Integrity (0-2) (HLA-B27 transgenic rats [3]): 0 | Cartilage Cells (HLA-B27 transgenic rats [3]; mean ± SD): 2.20 ± 0.45 | Cartilage Structure (0-6) (HLA-B27 transgenic rats [3]; mean ± SD): 3.40 ± 0.55 | Fibroplasia (0-3) (HLA-B27 transgenic rats [3]; mean ± SD): 2.00 ± 0.71 | Inflammatory Cells (0-3) (HLA-B27 transgenic rats [3]; mean ± SD): 2.00 ± 0.00 | Pannus (0-2) (HLA-B27 transgenic rats [3]; mean ± SD): 1.60 ± 0.89 | Safranin-O/Fast Green Staining (0-4) (HLA-B27 transgenic rats [3]; mean ± SD): 3.00 ± 0.00 | Synovial Structure (0-3) (HLA-B27 transgenic rats [3]; mean ± SD): 2.40 ± 0.55 | Total Mankin Score (HLA-B27 transgenic rats [3]; mean ± SD): 8.60 ± 0.89 | Total Synovitis Score (0-11) (HLA-B27 transgenic rats [3]; mean ± SD): 8.00 ± 1.87 | improvement in the joint scores (HLA-B27 transgenic rats [4]): 50%
